The values that follow come from US9675074B2, “Methods to reduce cold damage in cereals” (Valent BioSciences Corporation, priority 2014, dated 2017).

Molecules are shown by their SMILES.

Assay [1] has as its system Corn. In words: Greenhouse corn, foliar GA3 before a simulated freeze event (−2° C. for 8 hours), evaluated 8 days after freezing. Format: in vivo. As to the method:
Corn seeds were planted in 18 cell flats filled with Sunshine 900 mix. Osmocote Plus (cal mag) 16-8-12 and Gypsum ([…]) were added (standard medium). The plants were watered and fertilized with 100 ppm of a commercially available 15-5-15 mixture plus 100 ppm calcium and 100 ppm magnesium, pH 6.5, as necessary and grown in the greenhouse. After the corn grew for 7 days, the plants received a foliar application of 1.8 ml of 120 mg/liter GA3 plus 0.05% non-ionic surfactant per plant. Sixteen hours later, the GA3-treated and untreated control plants were moved to a cold room with temperature at −2° C. for 8 hours to simulate a freeze event. Plants were then moved to the greenhouse (25° C.). The plant height, number of injured leaves, and damaged leaf area were evaluated at 8 days after freezing.

In assay [2] the test system is Corn. In words: Corn growth at 8° C. for 7 d after foliar GA3 application at V2. The assay is classed as in vivo. As to conditions: 120 mg/liter (0.2 mg/plant: 6.9 grams of GA3/acre). Here is the method: Corn seeds were planted in 2 quart pots filled with standard medium and grown in the greenhouse. After the corn grew for 10 days at 24° C., it was at the V2 growth stage. The 10d post-sowing plants received a foliar application of 1.8 ml of 120 mg/liter GA3 plus 0.05% of a non-ionic surfactant. Immediately after spraying, both the GA3-treated and untreated control plants were moved to a growth chamber set at 8° C. with a 12:12 photoperiod. The height of the plants was measured one week after treatment.

The mark [3] stands for this setting: 120 mg/liter GA3, 1.8 ml per plant, 16 h before −2° C. for 8 h, 8 days after freezing.
Setting [4] is: pre-frost GA3 treatment, 120 mg/liter.

Regarding `C=C1C[C@]23C[C@@]1(O)CC[C@H]2[C@@]12C=C[C@H](O)[C@@](C)(C(=O)O1)[C@H]2[C@@H]3C(=O)O` [GA3, gibberellic acid], in the assay with Corn [1] (setting [3]), the Damaged leaf area was 12.4%, the “Number of injured leaf” value was 2.6 and the Plant height is 59.7 cm. In addition, in the assay with Corn [1] (setting [4]), the “Effect on number of injured leaves or damaged leaf area” value was “did not reduce the number of injured leaves or damaged leaf area” and the “Recovery from frost damage” value is reported as “did help the corn recover from the frost damage”. The molecule further returned a Growth rate in the assay with Corn [2] (7 d at 8° C.) of 0.58 cm/day. Also, the “Height at 7 d” value in the assay with Corn [2] (7 d at 8° C., 12:12 photoperiod) amounted to 28.0 cm. For the same molecule, the “Height at Application” value in the assay with Corn [2] (baseline at application, V2) is 23.9 cm.
